Measured values: PubChem BioAssay (NCI)
Values joined by “and” are separate entries in the source; they are usually repeats but may differ in a detail not shown here. Equal entries are not always repeated.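 These data come from cells grown in 96-well plates and exposed to compound for 48 hours at five concentrations. GI50: concentration for 50% inhibition of growth. TGI is the concentration that stops growth completely.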

Key:
Assay in all cases: inhibition of tumour cell growth, NCI panel, 48 h
[1] = test system: 786-0 renal
[2] = test system: A549 NSCLC
[3] = test system: CAKI-1 renal
[4] = test system: CCRF-CEM leukemia
[5] = test system: KM12 colon
[6] = test system: M14 melanoma
[7] = test system: RPMI-8226 leukemia
[8] = test system: SK-OV-3 ovarian
[9] = test system: TK-10 renal
[10] = test system: NCI/ADR-RES ovarian

Structure (SMILES) | TGI [1] [µM] | TGI [2] [µM] | TGI [3] [µM] | TGI [4] [µM] | TGI [5] [µM] | TGI [6] [µM] | TGI [7] [µM] | TGI [8] [µM] | TGI [9] [µM] | GI50 [4] | GI50 [1] [µM] | GI50 [2] [µM] | GI50 [5] [µM] | GI50 [6] [µM] | GI50 [10] [µM] | TGI [10] [µM] | GI50 [7] [µM] | GI50 [9] [µM] | GI50 [3] [µM] | GI50 [8] [µM]
O=C1NC(O)n2c(=O)[nH]c(=O)n21 (configuration not stated) | > 100 | > 100 | > 100 | > 100 | > 100 | > 100 | > 100 | > 100 | > 100 | – | – | – | – | – | – | – | – | – | – | –
c1cnc2c(c1)-n1cccc1C1(CCCCC1)NN2 | > 100 | > 100 | > 100 | > 100 | > 100 | > 100 | > 100 | – | > 100 | – | – | – | – | – | – | – | – | – | – | –
CCOc1ccc(NC(=O)/C(CC(=O)c2c[n+](=O)c3ccccc3n2[O-])=N\OCCCc2ccccc2)cc1 | > 100 | > 100 | > 100 | > 100 | > 100 | > 100 | > 100 | > 100 | > 100 | – | – | – | – | – | – | – | – | – | – | –
c1ccc2c(c1)[nH]c1c2nc2ccccn21 | > 100 | > 100 | > 100 | > 100 | > 100 | > 100 | > 100 | > 100 | > 100 | 48.4 µM and > 100 µM | – | – | – | – | – | – | – | – | – | –
O=c1c(Cc2ccc3c(c2)OCO3)nnc2sc(-c3cc(F)c(Cl)cc3Cl)nn12 | > 100 | > 100 | – | > 100 | > 100 | > 100 | > 100 | – | 65 | 33.9 µM | 17.2 | 41.8 | 35.6 | > 100 | 63.7 | > 100 | 30.6 | 22.6 | – | –
O=c1[nH]ccc(CNC23CC4CC(CC(C4)C2)C3)c1O | > 100 | > 100 | > 100 | > 100 | > 100 | > 100 | > 100 | > 100 | > 100 | – | – | – | – | – | – | – | – | – | – | –
CC(C)(C)C#COC(=O)c1ccccc1 | > 100 | > 100 | > 100 | > 100 | > 100 | > 100 | > 100 | > 100 | – | – | – | – | – | – | – | – | – | – | – | –
Cc1cc(=O)[nH]c(NNC(C#N)c2cccc([N+](=O)[O-])c2)n1 (configuration not stated) | > 100 | > 100 | > 100 | > 100 | > 100 | > 100 | > 100 | > 100 | > 100 | – | – | – | – | – | – | – | – | – | – | –
O=C(Nc1sc2c(c1C(=O)O)CCCC2)c1ccco1 | > 50 | > 50 | > 50 | > 50 | > 50 | > 50 | > 50 | > 50 | > 50 | > 50 µM | > 50 | 19.1 | 29.5 | > 50 | – | – | > 50 | > 50 | 44.1 | > 50
COC1(OC)C2(Cl)C3=CCCC=C3C1(Cl)C(Cl)=C2Cl | > 100 | > 100 | 84.2 | 42.4 | > 100 | 31.4 | 34 | 72.6 | > 100 | – | – | – | – | – | – | – | – | – | – | –
Cn1c(COC(=O)NCCc2ccccn2)nc2c(N3CCOCC3)nc(Cl)nc21 | 2.95 | 5.96 | 2.16 | 12.6 | 4.75 | 3.34 | – | 24.3 | 3.34 | 0.62 µM | 1.34 | 1.85 | 1.8 | 1.53 | 2.62 | 8.49 | – | 1.72 | 0.974 | 12
C/C(=N/NC(=S)Nc1ccccc1)c1nc2ccc(Cl)cc2[nH]1 | 0.368 | 1.41 | – | 7.18 | 0.826 | 0.26 | 3.36 | 1.39 | 2.61 | 0.039 µM | 0.0918 | 0.217 | 0.14 | 0.0763 | – | – | 0.202 | 0.539 | – | 0.246
CC(C)Cc1cnc(CC(C)C)c(=O)[nH]1 | > 100 | > 100 | > 100 | > 100 | > 100 | > 100 | > 100 | > 100 | > 100 | – | – | – | – | – | – | – | – | – | – | –
Cc1cc(Cl)ccc1NC(=O)CCCC(=O)C1C/C(=N/O)CC/C1=N\O (configuration not stated) | > 100 | > 100 | > 100 | > 100 | > 100 | > 100 | > 100 | > 100 | > 100 | – | – | – | – | – | – | – | – | – | – | –
Cc1cccc(C)c1NC(=O)C(=O)Cc1nc2ccccc2s1 | > 100 | > 100 | > 100 | > 100 | > 100 | > 100 | > 100 | > 100 | > 100 | – | – | – | – | – | – | – | – | – | – | –
CC(=O)[CH-]C(C)=O.CC(=O)[CH-]C(C)=O.[O-]c1ccccc1.[O-]c1ccccc1.[Ti+4] | > 100 | > 100 | > 100 | > 100 | > 100 | – | > 100 | > 100 | > 100 | > 100 µM | > 100 | > 100 | > 100 | – | – | – | > 100 | > 100 | > 100 | > 100
O=c1c(Cc2ccccc2)c(O)cc2n1CCC2 | > 100 | > 100 | > 100 | > 100 | > 100 | > 100 | > 100 | > 100 | > 100 | – | – | – | – | – | – | – | – | – | – | –
Cc1nnc2n1N=C(c1ccccc1)C(c1ccccc1)S2 (configuration not stated) | > 100 | > 100 | > 100 | 77.1 | > 100 | 46.5 | > 100 | 68.2 | > 100 | – | – | – | – | – | – | – | – | – | – | –
O=c1c(-c2ccc3c(c2)OCO3)coc2c3c(ccc12)OCO3 | 35.5 | > 100 | > 100 | > 100 | > 100 | > 100 | > 100 | 40.9 | 36.8 | – | – | – | – | – | – | – | – | – | – | –
CCOc1c(Br)cc(Br)cc1C=C(C#N)C#N | > 10 | > 10 | – | > 10 | > 10 | – | > 10 | > 10 | > 10 | – | – | – | – | – | – | 4.98 | – | – | – | –
